Measured values: the supplement of paper PMC10307832

The cell lines below were run with N[C@@H]1CCCN(c2c(/C=C3\SC(=O)NC3=O)cccc2-c2ccccc2)C1 [AZD1208] + CC(C)C[C@H](NC(=O)[C@H](Cc1ccccc1)NC(=O)c1cnccn1)B(O)O [Bortezomib] (partner 0.002 µM) (assay: relative viability (nuclei count vs DMSO), 5 days (fraction); higher = more cells survive). Details: first compound 0.08 µM.
In short: (§1)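 Nuclei were stained with Hoechst during a one-step fixation (final 0.05% Triton X-100, 1% formaldehyde, 1 ug/ml Hoechst) carried out 5 days after dosing, then counted on 4× images. The cells, lung cancer lines in 1536-well plates, had been dosed by pin tool the day after seeding with one drug alone or a fixed anchor-drug dose plus five library-drug doses (not always all listed) in √10 steps. Relative viability is the nuclei count in treated wells divided by that in vehicle wells, and each value is the median of duplicate plates.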
Cell Line NCI-H1703 has a relative viability of 0.277.
NCI-H2009 showed a relative viability of 1.01.
PC-14 gave a relative viability of 0.963.
Work on LCLC-103H yielded a relative viability of 1.01.
Work on NCI-H596 yielded a relative viability of 0.578.
For NCI-H2228, the relative viability was 1.15.
EMC-BAC-2 showed a relative viability of 1.15.
For NCI-H2087, the relative viability was 0.827.
For Calu-6, the relative viability was 1.01.
In the case of HCC-366, the relative viability is reported as 1.02.
With NCI-H1666 the relative viability was 0.828.
NCI-H647 showed a relative viability of 1.05.
For NCI-H2126, the relative viability was 1.1.
IA-LM was tested, and the relative viability was 0.648.
HCC-44 showed a relative viability of 0.991.
NCI-H727 showed a relative viability of 0.641.
Cell Line NCI-H1299 has a relative viability of 1.06.
With NCI-H1792 the relative viability was 0.999.
With NCI-H1563 the relative viability was 0.829.
Cell Line ABC-1 has a relative viability of 0.302.

Same assay, conditions: first compound 0.253 µM
In the case of NCI-H838, the relative viability is reported as 0.94.
Cell Line NCI-H1650 has a relative viability of 0.19.
Cell Line EBC-1 has a relative viability of 0.586.
Cell Line NCI-H1703 has a relative viability of 0.159.
For NCI-H2009, the relative viability was 1.09.
For NCI-H1993, the relative viability was 1.04.
For PC-14, the relative viability was 0.954.
Work on LCLC-103H yielded a relative viability of 1.12.
NCI-H596 gave a relative viability of 0.857.
NCI-H2228 gave a relative viability of 1.15.
EMC-BAC-2 was tested, and the relative viability was 1.16.
With NCI-H2087 the relative viability was 1.01.
Calu-6 was tested, and the relative viability was 1.02.
With HCC-366 the relative viability was 1.09.
NCI-H1666 showed a relative viability of 0.745.
Cell Line NCI-H647 has a relative viability of 1.12.
For NCI-H2126, the relative viability was 1.14.
IA-LM was tested, and the relative viability was 0.708.
HCC-44 gave a relative viability of 0.952.
In the case of NCI-H727, the relative viability is reported as 0.895.
NCI-H1299 showed a relative viability of 1.07.
NCI-H1792 showed a relative viability of 0.987.
With NCI-H1563 the relative viability was 0.811.
ABC-1 gave a relative viability of 0.31.

Same assay, conditions: first compound 0.8 µM
NCI-H838 showed a relative viability of 0.714.
In the case of NCI-H1650, the relative viability is reported as 0.226.
EBC-1 showed a relative viability of 0.508.
Work on NCI-H1703 yielded a relative viability of 0.246.
Work on NCI-H2009 yielded a relative viability of 0.968.
NCI-H1993 was tested, and the relative viability was 0.925.
In the case of PC-14, the relative viability is reported as 0.848.
LCLC-103H gave a relative viability of 1.02.
For NCI-H596, the relative viability was 0.98.
Cell Line NCI-H2228 has a relative viability of 0.865.
EMC-BAC-2 was tested, and the relative viability was 1.05.
With NCI-H2087 the relative viability was 0.846.
Cell Line Calu-6 has a relative viability of 0.976.
With HCC-366 the relative viability was 0.943.
NCI-H1666 showed a relative viability of 0.783.
For NCI-H647, the relative viability was 0.902.
Cell Line NCI-H2126 has a relative viability of 1.09.
In the case of IA-LM, the relative viability is reported as 0.876.
In the case of HCC-44, the relative viability is reported as 0.857.
For NCI-H727, the relative viability was 0.804.
NCI-H1299 was tested, and the relative viability was 0.994.
Work on NCI-H1792 yielded a relative viability of 0.903.
Cell Line NCI-H1563 has a relative viability of 0.958.
In the case of ABC-1, the relative viability is reported as 0.282.

Same assay, conditions: first compound 2.53 µM
NCI-H838 showed a relative viability of 0.8.
Cell Line NCI-H1650 has a relative viability of 0.199.
Cell Line EBC-1 has a relative viability of 0.456.
NCI-H1703 was tested, and the relative viability was 0.253.
NCI-H2009 showed a relative viability of 0.832.
Cell Line NCI-H1993 has a relative viability of 0.998.
PC-14 gave a relative viability of 1.01.
LCLC-103H showed a relative viability of 0.949.
Work on NCI-H596 yielded a relative viability of 1.01.
EMC-BAC-2 gave a relative viability of 1.02.
NCI-H2087 gave a relative viability of 0.941.
Calu-6 was tested, and the relative viability was 1.03.
In the case of HCC-366, the relative viability is reported as 1.03.
NCI-H1666 gave a relative viability of 0.637.
For NCI-H647, the relative viability was 0.774.
Work on NCI-H2126 yielded a relative viability of 1.07.
Work on IA-LM yielded a relative viability of 0.724.
For HCC-44, the relative viability was 0.978.
In the case of NCI-H727, the relative viability is reported as 0.882.
NCI-H1299 showed a relative viability of 0.986.
In the case of NCI-H1792, the relative viability is reported as 0.958.
With NCI-H1563 the relative viability was 0.754.
Cell Line ABC-1 has a relative viability of 0.268.

Same assay, conditions: first compound 8 µM
NCI-H838 gave a relative viability of 0.692.
With NCI-H1650 the relative viability was 0.192.
EBC-1 was tested, and the relative viability was 0.448.
With NCI-H1703 the relative viability was 0.305.
Work on NCI-H2009 yielded a relative viability of 1.02.
With NCI-H1993 the relative viability was 0.888.
PC-14 gave a relative viability of 0.907.
With LCLC-103H the relative viability was 0.85.
NCI-H596 was tested, and the relative viability was 0.878.
For NCI-H2228, the relative viability was 0.704.
In the case of EMC-BAC-2, the relative viability is reported as 0.919.
In the case of NCI-H2087, the relative viability is reported as 0.909.
In the case of Calu-6, the relative viability is reported as 0.929.
HCC-366 showed a relative viability of 0.973.
Work on NCI-H1666 yielded a relative viability of 0.579.
In the case of NCI-H647, the relative viability is reported as 0.774.
NCI-H2126 showed a relative viability of 1.1.
IA-LM gave a relative viability of 0.746.
For HCC-44, the relative viability was 0.95.
NCI-H727 showed a relative viability of 0.697.
NCI-H1299 showed a relative viability of 1.02.
In the case of NCI-H1792, the relative viability is reported as 0.86.
With NCI-H1563 the relative viability was 0.765.
ABC-1 gave a relative viability of 0.213.

What follows are cell lines tested with N[C@@H]1CCCN(c2c(/C=C3\SC(=O)NC3=O)cccc2-c2ccccc2)C1 [AZD1208] + O=C(CCCCCCC(=O)Nc1ccccc1)NO [Vorinostat] (partner 1 µM) in the same assay as above. Details: first compound 0.08 µM.
In short: as §1
NCI-H522 gave a relative viability of 0.691.
Work on NCI-H838 yielded a relative viability of 0.679.
NCI-H1650 was tested, and the relative viability was 0.635.
NCI-H2009 was tested, and the relative viability was 0.747.
NCI-H1993 showed a relative viability of 0.584.
With PC-14 the relative viability was 0.674.
Cell Line LCLC-103H has a relative viability of 0.772.
NCI-H596 was tested, and the relative viability was 0.628.
NCI-H2228 gave a relative viability of 0.647.
Cell Line EMC-BAC-2 has a relative viability of 0.872.
NCI-H2087 showed a relative viability of 0.789.
HCC-366 was tested, and the relative viability was 0.373.
NCI-H1666 showed a relative viability of 1.06.
Work on NCI-H647 yielded a relative viability of 0.521.
With LK-2 the relative viability was 0.329.
